# Results: PubChem BioAssay AID1845219 (Molecular Pharmacology Branch, DTP, NCI, 2023)
# System: SYO-1 tumor spheroids, viability % test/control
# Test: Anticancer human tumor SYO-1 cell line growth inhibition;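 also: spheroids exposed to agents for 7 days before viability read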;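 as to viability, T/C: 100% = DMSO vehicle control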
# Settings: spheroids with HUVEC and MSC; for IC50: curve of first compound; for viability, T/C: stronger effect = lower value
# Text: Multicellular complex tumor spheroid response to DNA repair inhibitors in combination with DNA-damaging drugs
# This study explores the anticancer activities of DNA-damaging drugs and inhibitors of DNA damage repair, both as single agents and in combinations. Complex tumor spheroids comprised of malignant cells, endothelial cells and mesenchymal stem cells served as an in vitro model for human solid tumors. This model system incorporates physiologically relevant features and patient-derived or established malignant cell lines with clinically relevant genetic alterations from many tumor types. Twenty-six patient-derived or established malignant cell lines were evaluated representing sarcoma, melanoma, small cell lung cancer (SCLC), non-small cell lung cancer (NSCLC), as well as bladder, ovarian and pancreatic cancers. The concentration ranges selected for each drug and investigational agent were based upon clinically achievable concentrations if the clinical Cmax of the agent was known.
# Compounds. The drugs and compounds olaparib (NSC753686), talazoparib (NSC767125), berzosertib (NSC777718), elimusertib (NSC800525), nedisertib (NSC802822), VX-984 (NSC792969), AZD-1390 (NSC803789), temozolomide (NSC362856), topotecan (NSC609699), trabectedin (NSC813783), staurosporine (NSC755774), and gemcitabine (NSC613327) were obtained from the National Cancer Institute (NCI) Developmental Therapeutics Program Chemical Repository. The FDA-approved anticancer drug set is available from the Developmental Therapeutics Program at https://dtp.cancer.gov/organization/dscb/obtaining/available_plates.htm. […] The stock solutions were prepared in dimethyl sulfoxide (DMSO, Sigma-Aldrich, St. Louis, MO, cat. D2650) at 400-fold the tested concentration and stored at -70 degrees C. Prior to their use, the stock solutions were diluted in fresh medium and the final DMSO concentration in the assay was 0.25% (v/v). All drugs and investigational agents were tested over a range starting from a high concentration at or near the clinical Cmax and decreasing in half-log increments. If the clinical Cmax for an agent had not been determined, the highest concentration tested was 10 microM.
# Cell Lines. The patient-derived cancer cell (PDC) lines: 156681-154-R-J1-PDC, 283228-195-R-J1-PDC, 287954-098-R-J1-PDC, 292921-168-R-J2-PDC, 349418-098-R-PDC, 425362-245-T-J1-PDC, 556581-035-R-J1-PDC, and BL0293-F563-PDC were received from the NCI Patient-Derived Models Repository (PDMR, https://pdmr.cancer.gov). The established cell lines HS-SY-2 (RRID:CVCL_8719), MPNST, and SYO-1 (RRID:CVCL_7146) were obtained from the Sloan Kettering Institute. The alveolar soft parts sarcoma cell line ASPS-1 (RRID:CVCL_S738) was established at the NCI and grown from internal seed stocks. The following established cell lines were purchased from the American Type Culture Collection (ATCC, Manassas, VA): G-401 (ATCC, cat. CRL-1441, RRID:CVCL_0270), SW982 (ATCC, cat. HTB-93, RRID:CVCL_1734), VA-ES-BJ (ATCC, cat. CRL-2138, RRID:CVCL_1785), NCI-H719 (ATCC, cat. CRL-5837, RRID:CVCL_1582), NCI-H196 (ATCC, cat. CRL-5823, RRID:CVCL_1509), NCI-H841 (ATCC, cat. CRL-5845, RRID:CVCL_1595), NCI-H1618 (ATCC, cat. CRL-5879, RRID:CVCL_1480), NCI-H1876 (ATCC, cat. CRL-5902, RRID:CVCL_1503), DMS 114 (ATCC, cat. CRL-2066; RRID:CVCL_1174), NCI-H211 (ATCC, cat. CRL-5824; RRID:CVCL_1529), and SW 1271 (ATCC, cat. CRL-2177, RRID:CVCL_1716). The small cell lung cancer cell line COR-L88 was purchased from Sigma-Aldrich (cat. 92031917-1VL, RRID:CVCL_1141). The non-small cell lung cancer cell lines NCI-H226 (RRID:CVCL_1544) and NCI-H322M (RRID:CVCL_1557) were established at the NCI and grown from internal seed stocks. Pooled donor human umbilical vein endothelial cells (HUVEC, Lonza, cat. CC-2519) and human mesenchymal stem cells (hMSC, Lonza, cat. PT-2501) were purchased from Lonza (Walkersville, MD).
# Cell Culture. All cells were maintained in an incubator at 37 degrees C and 5% CO2 with 95% humidity. […]
smiles,measurement,setting,value
Cc1cc(C)c(CNC(=O)c2cc(-c3ccc(CN4CCOCC4)cc3)cc3c2cnn3C2CCCC2)c(=O)[nH]1 + COc1cc2c(cc1O)CCNC21CSC2c3c(OC(C)=O)c(C)c4c(c3C(COC1=O)N1C(O)C3Cc5cc(C)c(OC)c(O)c5C(C21)N3C)OCO4,IC50,second compound 30 pM,> 10 µM
same,IC50,second compound 94.9 pM,7.98 µM
same,IC50,second compound 0.0003 µM,< 0.0316 µM
same,IC50,second compound 0.000949 µM,< 0.0316 µM
same,IC50,second compound 0.003 µM,< 0.0316 µM
same,"viability, T/C","second compound 30 pM, first compound 0.0316 µM",103%
same,"viability, T/C","second compound 30 pM, first compound 0.1 µM",97.2%
same,"viability, T/C","second compound 30 pM, first compound 0.316 µM",100%
same,"viability, T/C","second compound 30 pM, first compound 1 µM",103%
same,"viability, T/C","second compound 30 pM, first compound 3.16 µM",107%
same,"viability, T/C","second compound 30 pM, first compound 10 µM",96.3%
same,"viability, T/C","second compound 94.9 pM, first compound 0.0316 µM",102%
same,"viability, T/C","second compound 94.9 pM, first compound 0.1 µM",96.3%
same,"viability, T/C","second compound 94.9 pM, first compound 0.316 µM",99.2%
same,"viability, T/C","second compound 94.9 pM, first compound 1 µM",99.8%
same,"viability, T/C","second compound 94.9 pM, first compound 3.16 µM",84.5%
same,"viability, T/C","second compound 94.9 pM, first compound 10 µM",41.1%
same,"viability, T/C","second compound 0.0003 µM, first compound 0.0316 µM",18.4%
same,"viability, T/C","second compound 0.0003 µM, first compound 0.1 µM",14.3%
same,"viability, T/C","second compound 0.0003 µM, first compound 0.316 µM",13.3%
same,"viability, T/C","second compound 0.0003 µM, first compound 1 µM",11%
same,"viability, T/C","second compound 0.0003 µM, first compound 3.16 µM",12.2%
same,"viability, T/C","second compound 0.0003 µM, first compound 10 µM",3.97%
same,"viability, T/C","second compound 0.000949 µM, first compound 0.0316 µM",0.91%
same,"viability, T/C","second compound 0.000949 µM, first compound 0.1 µM",0.86%
same,"viability, T/C","second compound 0.000949 µM, first compound 0.316 µM",1.11%
same,"viability, T/C","second compound 0.000949 µM, first compound 1 µM",0.97%
same,"viability, T/C","second compound 0.000949 µM, first compound 3.16 µM",0.9%
same,"viability, T/C","second compound 0.000949 µM, first compound 10 µM",1.08%
same,"viability, T/C","second compound 0.003 µM, first compound 0.0316 µM",0.13%
same,"viability, T/C","second compound 0.003 µM, first compound 0.1 µM",0.13%
same,"viability, T/C","second compound 0.003 µM, first compound 0.316 µM",0.13%
same,"viability, T/C","second compound 0.003 µM, first compound 1 µM",0.15%
same,"viability, T/C","second compound 0.003 µM, first compound 3.16 µM",0.14%
same,"viability, T/C","second compound 0.003 µM, first compound 10 µM",0.2%
